Measured values published in publication PMC5218480 (PLoS ONE, 2017).

System: MV-4-11 cells
Test: Gene expression microarray analysis (Affymetrix PrimeView) and GSEA
Assay type: cell-based, human
Set-up: RFU PODN (11730768_x_at) / Fold change /veh PODN (11730768_x_at) / RFU LINC00158 (11744669_a_at) / Fold change /veh LINC00158 (11744669_a_at) / RFU DUSP10 (11751237_a_at) / Fold change /veh DUSP10 (11751237_a_at) / RFU ID3 (11757404_x_at) / Fold change /veh ID3 (11757404_x_at) / RFU PLEKHG5 (11737974_s_at) / Fold change /veh PLEKHG5 (11737974_s_at) / RFU LRRC4B (11730491_at) / Fold change /veh LRRC4B (11730491_at) / RFU GIMAP4 (11747438_a_at) / Fold change /veh GIMAP4 (11747438_a_at) / RFU KRT8 (11758183_x_at) / Fold change /veh KRT8 (11758183_x_at) / RFU CNN1 (11734310_a_at) / Fold change /veh CNN1 (11734310_a_at) / RFU VPS37D (11726825_at) / Fold change /veh VPS37D (11726825_at) / RFU C10orf10 (11716522_x_at) / Fold change /veh C10orf10 (11716522_x_at) / RFU KIR2DL2 /// KIR2DL4 /// KIR2DL5A /// KIR2DL5B /// KIR2DS1 /// KIR2DS2 /// KIR2DS3 /// KIR2DS4 /// KIR3DL3 /// KIR3DL3 /// KIR3DS1 (11738374_at) / Fold change /veh KIR2DL2 /// KIR2DL4 /// KIR2DL5A /// KIR2DL5B /// KIR2DS1 /// KIR2DS2 /// KIR2DS3 /// KIR2DS4 /// KIR3DL3 /// KIR3DL3 /// KIR3DS1 (11738374_at) / RFU C1QL1 (11718748_at) / Fold change /veh C1QL1 (11718748_at) / RFU TMPRSS4 (11747572_a_at) / Fold change /veh TMPRSS4 (11747572_a_at) / RFU HAMP (11756126_x_at) / Fold change /veh HAMP (11756126_x_at) / RFU RNFT2 (11725882_a_at) / Fold change /veh RNFT2 (11725882_a_at) / RFU NR4A2 (11747474_a_at) / Fold change /veh NR4A2 (11747474_a_at) / RFU ABCC12 (11746883_a_at) / Fold change /veh ABCC12 (11746883_a_at) / RFU TMEM136 (11760407_x_at) / Fold change /veh TMEM136 (11760407_x_at) / RFU CLDN22 /// WWC2 (11732394_at) / Fold change /veh CLDN22 /// WWC2 (11732394_at) / RFU HLA-DPB1 (11760878_x_at) / Fold change /veh HLA-DPB1 (11760878_x_at) / RFU SPINT1 (11716480_a_at) / Fold change /veh SPINT1 (11716480_a_at) / RFU GAP43 (11754022_s_at) / Fold change /veh GAP43 (11754022_s_at) / RFU A4GNT (11735810_at) / Fold change /veh A4GNT (11735810_at) / RFU PRB3 (11715151_x_at) / Fold change /veh PRB3 (11715151_x_at) / RFU TUBB4B (11761932_at) / Fold change /veh TUBB4B (11761932_at) / RFU CAPN14 (11732068_a_at) / Fold change /veh CAPN14 (11732068_a_at) / RFU TMCC2 (11721928_a_at) / Fold change /veh TMCC2 (11721928_a_at) / RFU IRGQ (11745062_a_at) / Fold change /veh IRGQ (11745062_a_at) / RFU FAM174B (11720279_a_at) / Fold change /veh FAM174B (11720279_a_at) / RFU TMPRSS4 (11748680_a_at) / Fold change /veh TMPRSS4 (11748680_a_at) / RFU FAM212B (11763350_a_at) / Fold change /veh FAM212B (11763350_a_at) / RFU PLEKHG5 (11743358_a_at) / Fold change /veh PLEKHG5 (11743358_a_at) / RFU ZSCAN30 (11745921_a_at) / Fold change /veh ZSCAN30 (11745921_a_at) / RFU CMKLR1 (11741424_a_at) / Fold change /veh CMKLR1 (11741424_a_at) / RFU LOC101060620 /// MAPK8IP1 (11723275_at) / Fold change /veh LOC101060620 /// MAPK8IP1 (11723275_at) / RFU SPTSSB (11747773_x_at) / Fold change /veh SPTSSB (11747773_x_at) / RFU PRSS12 (11739890_at) / Fold change /veh PRSS12 (11739890_at) / RFU BIN1 (11741810_x_at) / Fold change /veh BIN1 (11741810_x_at) / RFU WNT11 (11732464_a_at) / Fold change /veh WNT11 (11732464_a_at) / RFU C10orf10 (11716521_a_at) / Fold change /veh C10orf10 (11716521_a_at) / RFU C5orf56 (11738089_at) / Fold change /veh C5orf56 (11738089_at) / RFU CYB561 (11721691_x_at) / Fold change /veh CYB561 (11721691_x_at) / RFU ANKRD19P (11752326_a_at) / Fold change /veh ANKRD19P (11752326_a_at) / RFU OR2T12 /// OR2T33 /// OR2T8 (11738714_s_at) / Fold change /veh OR2T12 /// OR2T33 /// OR2T8 (11738714_s_at) / RFU VCAN (11748164_a_at) / Fold change /veh VCAN (11748164_a_at) / RFU JSRP1 (11732532_at) / Fold change /veh JSRP1 (11732532_at) / RFU KRTAP10-11 (11738290_x_at) / Fold change /veh KRTAP10-11 (11738290_x_at) / RFU MYO3A (11730013_a_at) / Fold change /veh MYO3A (11730013_a_at) / RFU EBF3 (11725865_a_at) / Fold change /veh EBF3 (11725865_a_at) / RFU CAMK2N1 (11719241_x_at) / Fold change /veh CAMK2N1 (11719241_x_at) / RFU C5orf56 (11738088_a_at) / Fold change /veh C5orf56 (11738088_a_at) / RFU OLFML3 (11715873_a_at) / Fold change /veh OLFML3 (11715873_a_at) / RFU LOC100653217 /// NTM (11731650_a_at) / Fold change /veh LOC100653217 /// NTM (11731650_a_at) / RFU MAPK11 (11762145_a_at) / Fold change /veh MAPK11 (11762145_a_at) / RFU FIZ1 (11724087_x_at) / Fold change /veh FIZ1 (11724087_x_at) / RFU OASL (11726364_x_at) / Fold change /veh OASL (11726364_x_at) / RFU SOX15 (11748057_x_at) / Fold change /veh SOX15 (11748057_x_at) / RFU CD79A (11719716_a_at) / Fold change /veh CD79A (11719716_a_at) / RFU HIST1H1D (11736915_at) / Fold change /veh HIST1H1D (11736915_at) / RFU CASKIN2 (11723855_a_at) / Fold change /veh CASKIN2 (11723855_a_at) / RFU LOC730098 (11760151_x_at) / Fold change /veh LOC730098 (11760151_x_at) / RFU OR4N2 (11742367_at) / Fold change /veh OR4N2 (11742367_at) / RFU PRRT2 (11749266_a_at) / Fold change /veh PRRT2 (11749266_a_at) / RFU SNX32 (11753110_a_at) / Fold change /veh SNX32 (11753110_a_at) / RFU CDHR5 (11726645_a_at) / Fold change /veh CDHR5 (11726645_a_at) / RFU RCAN1 (11760418_a_at) / Fold change /veh RCAN1 (11760418_a_at) / RFU FAM167A (11723789_a_at) / Fold change /veh FAM167A (11723789_a_at) / RFU FAM26E (11764081_at) / Fold change /veh FAM26E (11764081_at) / RFU ISYNA1 (11749810_s_at) / Fold change /veh ISYNA1 (11749810_s_at) / RFU ACY1 (11761880_at) / Fold change /veh ACY1 (11761880_at) / RFU 11764098_at / Fold change /veh 11764098_at / RFU SAMD14 (11745864_x_at) / Fold change /veh SAMD14 (11745864_x_at) / RFU NPB (11741838_a_at) / Fold change /veh NPB (11741838_a_at) / RFU TMPRSS6 (11731388_a_at) / Fold change /veh TMPRSS6 (11731388_a_at) / RFU KRTAP10-2 (11738614_at) / Fold change /veh KRTAP10-2 (11738614_at) / RFU ARHGAP8 /// PRR5-ARHGAP8 (11727945_x_at) / Fold change /veh ARHGAP8 /// PRR5-ARHGAP8 (11727945_x_at) / RFU KRTAP5-7 /// NADSYN1 (11734609_at) / Fold change /veh KRTAP5-7 /// NADSYN1 (11734609_at) / RFU RASL12 (11751679_a_at) / Fold change /veh RASL12 (11751679_a_at) / RFU CDKN2B (11736163_a_at) / Fold change /veh CDKN2B (11736163_a_at) / RFU PRF1 (11729649_at) / Fold change /veh PRF1 (11729649_at) / RFU, ZNF638 /// ZNF638-IT1 / Fold change vs veh, ZNF638 /// ZNF638-IT1 / RFU, PANK3 / Fold change vs veh, PANK3 / RFU, SH3YL1 / Fold change vs veh, SH3YL1 / RFU, ZEB2 / Fold change vs veh, ZEB2 / RFU, NRIP1 / Fold change vs veh, NRIP1 / RFU, PTTG1IP / Fold change vs veh, PTTG1IP / RFU, CAPN2 / Fold change vs veh, CAPN2 / RFU, MED14 / Fold change vs veh, MED14 / RFU, SNORA58 / Fold change vs veh, SNORA58 / RFU, C1orf63 / Fold change vs veh, C1orf63 / RFU, LRRFIP1 / Fold change vs veh, LRRFIP1 / RFU, NDUFAF7 / Fold change vs veh, NDUFAF7 / RFU, SLC12A2 / Fold change vs veh, SLC12A2 / RFU, IBTK / Fold change vs veh, IBTK / RFU, ESF1 / Fold change vs veh, ESF1 / Fold change vs veh, TMEM50B / RFU, TAOK1 / Fold change vs veh, TAOK1 / RFU, ACBD3 / Fold change vs veh, ACBD3 / RFU, TMA16 / Fold change vs veh, TMA16 / RFU, RWDD3 / Fold change vs veh, RWDD3 / RFU, BCAT1 / Fold change vs veh, BCAT1 / RFU, EDEM3 / Fold change vs veh, EDEM3 / RFU, TMEM33 / Fold change vs veh, TMEM33 / RFU, WDR75 / Fold change vs veh, WDR75 / RFU, AHCTF1 / Fold change vs veh, AHCTF1 / RFU, TFRC / Fold change vs veh, TFRC / RFU, ZDHHC17 / Fold change vs veh, ZDHHC17 / RFU, NOM1 / Fold change vs veh, NOM1 / RFU, ARL8B / Fold change vs veh, ARL8B / RFU, ZBTB11 / Fold change vs veh, ZBTB11 / RFU, TAMM41 / Fold change vs veh, TAMM41 / RFU, KIAA1704 /// LOC100996395 / Fold change vs veh, KIAA1704 /// LOC100996395 / RFU, ING1 / Fold change vs veh, ING1 / RFU, TRMT61B / Fold change vs veh, TRMT61B / RFU, FUBP3 / Fold change vs veh, FUBP3 / RFU, TP53 / Fold change vs veh, TP53 / RFU, TNKS2 / Fold change vs veh, TNKS2 / RFU, ZFP14 / Fold change vs veh, ZFP14 / RFU, ACTR2 / Fold change vs veh, ACTR2 / RFU, PPP3R1 / Fold change vs veh, PPP3R1 / RFU, PIK3R1 / Fold change vs veh, PIK3R1 / RFU, HNRNPA1 / Fold change vs veh, HNRNPA1 / RFU, RNF170 / Fold change vs veh, RNF170 / RFU, ZNF28 / Fold change vs veh, ZNF28 / RFU, RNGTT / Fold change vs veh, RNGTT / RFU, OGT / Fold change vs veh, OGT / RFU, BRD1 / Fold change vs veh, BRD1 / RFU, MARS / Fold change vs veh, MARS / RFU, ZNF655 / Fold change vs veh, ZNF655 / RFU, FAHD1 / Fold change vs veh, FAHD1 / RFU, BDP1 / Fold change vs veh, BDP1 / RFU, LRRCC1 / Fold change vs veh, LRRCC1 / RFU, ARID1A / Fold change vs veh, ARID1A / RFU, ZNF146 / Fold change vs veh, ZNF146 / RFU, ZNF330 / Fold change vs veh, ZNF330 / RFU, GPN3 / Fold change vs veh, GPN3 / RFU, C9orf123 / Fold change vs veh, C9orf123 / RFU, N4BP2L2 / Fold change vs veh, N4BP2L2 / RFU, ARFIP1 / Fold change vs veh, ARFIP1 / RFU, FAM179B / Fold change vs veh, FAM179B / RFU, BCL10 / Fold change vs veh, BCL10 / RFU, UHRF1BP1L / Fold change vs veh, UHRF1BP1L / RFU, BET1 / Fold change vs veh, BET1 / RFU, CNOT2 / Fold change vs veh, CNOT2 / RFU, ZNF268 / Fold change vs veh, ZNF268 / Fold change vs veh, ZNF507 / RFU, DGCR2 / Fold change vs veh, DGCR2 / RFU, WDSUB1 / Fold change vs veh, WDSUB1 / Fold change vs veh, HSP90B1 /// MIR3652 / RFU, ADSS / Fold change vs veh, ADSS / RFU, GK / Fold change vs veh, GK / RFU, ZNF148 / Fold change vs veh, ZNF148 / RFU, TAF9 / Fold change vs veh, TAF9 / RFU, SLC1A5 / Fold change vs veh, SLC1A5 / RFU, SLMO2 / Fold change vs veh, SLMO2 / RFU, ABCC4 / Fold change vs veh, ABCC4 / RFU, LOC101060439 /// RAP1B / Fold change vs veh, LOC101060439 /// RAP1B / RFU, RFX7 / Fold change vs veh, RFX7 / RFU, GTPBP10 / Fold change vs veh, GTPBP10 / RFU, CNEP1R1 / Fold change vs veh, CNEP1R1 / RFU, BIVM-ERCC5 /// ERCC5 / Fold change vs veh, BIVM-ERCC5 /// ERCC5 / RFU, ILF3 / Fold change vs veh, ILF3 / RFU 11762660_at / Fold change /veh 11762660_at / RFU VCAN (11757783_s_at) / Fold change /veh VCAN (11757783_s_at) / RFU DDX43 (11728927_at) / Fold change /veh DDX43 (11728927_at) / RFU KRT8 (11758188_x_at) / Fold change /veh KRT8 (11758188_x_at) / RFU NKD1 (11759106_at) / Fold change /veh NKD1 (11759106_at) / RFU SRD5A1 (11742802_a_at) / Fold change /veh SRD5A1 (11742802_a_at) / RFU TPSAB1 /// TPSB2 (11721975_s_at) / Fold change /veh TPSAB1 /// TPSB2 (11721975_s_at) / RFU GSTM3 (11746129_a_at) / Fold change /veh GSTM3 (11746129_a_at) / RFU IL23R (11737362_x_at) / Fold change /veh IL23R (11737362_x_at) / RFU TMEM51 (11727254_a_at) / Fold change /veh TMEM51 (11727254_a_at) / RFU PIWIL2 (11732686_x_at) / Fold change /veh PIWIL2 (11732686_x_at) / RFU ORM1 (11744905_x_at) / Fold change /veh ORM1 (11744905_x_at) / RFU CCDC152 (11743942_at) / Fold change /veh CCDC152 (11743942_at) / RFU ECM1 (11717891_a_at) / Fold change /veh ECM1 (11717891_a_at) / RFU IL23R (11748794_a_at) / Fold change /veh IL23R (11748794_a_at) / RFU TNFAIP8L3 (11732012_x_at) / Fold change /veh TNFAIP8L3 (11732012_x_at) / RFU MBOAT4 (11741988_at) / Fold change /veh MBOAT4 (11741988_at) / RFU 11764193_at / Fold change /veh 11764193_at / RFU TMEM53 (11763286_at) / Fold change /veh TMEM53 (11763286_at) / RFU MAGEB2 (11727129_at) / Fold change /veh MAGEB2 (11727129_at) / RFU TMEM200A (11744735_a_at) / Fold change /veh TMEM200A (11744735_a_at) / RFU CCDC152 (11751479_a_at) / Fold change /veh CCDC152 (11751479_a_at) / RFU FAM211A (11726209_a_at) / Fold change /veh FAM211A (11726209_a_at) / RFU RGS16 (11746705_a_at) / Fold change /veh RGS16 (11746705_a_at) / RFU VCAN (11755009_s_at) / Fold change /veh VCAN (11755009_s_at) / RFU RHOB (11743442_s_at) / Fold change /veh RHOB (11743442_s_at) / RFU RGS16 (11720943_a_at) / Fold change /veh RGS16 (11720943_a_at) / RFU RGS16 (11720944_at) / Fold change /veh RGS16 (11720944_at) / RFU, VPS4B / Fold change vs veh, VPS4B / RFU, CREB1 / Fold change vs veh, CREB1 / RFU, DNAJC13 / Fold change vs veh, DNAJC13 / RFU, GNAQ / Fold change vs veh, GNAQ / RFU, CDK5R1 / Fold change vs veh, CDK5R1 / RFU, ZRANB3 / Fold change vs veh, ZRANB3 / RFU, CUL4A / Fold change vs veh, CUL4A / RFU, CCNY / Fold change vs veh, CCNY / RFU, UFL1 / Fold change vs veh, UFL1 / RFU, COG3 / Fold change vs veh, COG3 / RFU, DIAPH2 / Fold change vs veh, DIAPH2 / RFU, SKA2 / Fold change vs veh, SKA2 / RFU, AFF3 / Fold change vs veh, AFF3 / RFU, LMF1 / Fold change vs veh, LMF1 / RFU, IPO11 / Fold change vs veh, IPO11 / RFU, DFFB / Fold change vs veh, DFFB / RFU, FOXP1 / Fold change vs veh, FOXP1 / RFU, CARD8 / Fold change vs veh, CARD8 / RFU, STRN3 / Fold change vs veh, STRN3 / RFU, ADK / Fold change vs veh, ADK / RFU, RASSF2 / Fold change vs veh, RASSF2 / RFU, WIPF1 / Fold change vs veh, WIPF1 / RFU, LARP1B / Fold change vs veh, LARP1B / RFU, RASA1 / Fold change vs veh, RASA1 / RFU, RB1 / Fold change vs veh, RB1 / RFU, PPFIA1 / Fold change vs veh, PPFIA1 / RFU, MAT2A / Fold change vs veh, MAT2A / RFU, CCT5 / Fold change vs veh, CCT5 / RFU, WDR92 / Fold change vs veh, WDR92 / RFU, CUX1 / Fold change vs veh, CUX1 / RFU, TTC7A / Fold change vs veh, TTC7A / RFU, TMEM135 / Fold change vs veh, TMEM135 / RFU, DEPTOR / Fold change vs veh, DEPTOR / RFU, CPM / Fold change vs veh, CPM / RFU, DNAJB6 / Fold change vs veh, DNAJB6 / RFU, CACNA2D3 / Fold change vs veh, CACNA2D3 / RFU, DTX4 / Fold change vs veh, DTX4 / RFU, TFCP2 / Fold change vs veh, TFCP2 / RFU, GMCL1 /// GMCL1P1 / Fold change vs veh, GMCL1 /// GMCL1P1 / RFU, AEBP2 / Fold change vs veh, AEBP2 / RFU, SNHG1 /// SNORD22 /// SNORD25 /// SNORD26 /// SNORD27 /// SNORD28 /// SNORD29 /// SNORD31 / Fold change vs veh, SNHG1 /// SNORD22 /// SNORD25 /// SNORD26 /// SNORD27 /// SNORD28 /// SNORD29 /// SNORD31 / Fold change (Aza/veh), C12orf56 (ProbeSet 11735607_a_at) / Fold change (ACY-1035/veh), C12orf56 (ProbeSet 11735607_a_at) / Fold change (Aza/veh), FGFR1OP (ProbeSet 11751329_s_at) / Fold change (ACY-1035/veh), FGFR1OP (ProbeSet 11751329_s_at) / Fold change (Aza/veh), VPS36 (ProbeSet 11739960_a_at) / Fold change (ACY-1035/veh), VPS36 (ProbeSet 11739960_a_at) / RFU SYPL1 (11715823_x_at) / Fold change /veh SYPL1 (11715823_x_at) / RFU IGFBP7 (11715501_s_at) / Fold change /veh IGFBP7 (11715501_s_at) / RFU REEP3 (11722064_at) / Fold change /veh REEP3 (11722064_at) / RFU IGLL1 (11728026_x_at) / Fold change /veh IGLL1 (11728026_x_at): dose or concentration left out as unconfirmed
Conditions: ProbeSet 11719493_s_at; LIST B

Compound: Nc1ncn([C@@H]2O[C@H](CO)[C@@H](O)[C@H]2O)c(=O)n1 [azacitidine]
- RFU, TAF9: 607.12 RFU
